Values after ≈ are worked out from the molar mass of the structure shown. Non-standard residues stand in square brackets, D forms with d. Residues, ends and D or L forms follow the SMILES beside them. *: point of attachment. X1 = NC(=O)[C@H](Cc1c[nH]cn1)NC(=O)CNC(=O)[C@@H](N)CN*; Gly(N(CH2)2(3-indolyl)) = O=C(O)CNCCc1c[nH]c2ccccc12; Nspe = C[C@H](NCC(=O)O)c1ccccc1; Nphe = O=C(O)CNCc1ccccc1; Nlys = NCCCCNCC(=O)O
What was measured:
[1] = Hemolytic activity in male Sprague-Dawley rat erythrocytes at 50 uM incubated for 1 hr by absorbance based method relative to control; assay type: toxicity, cell-based, Erythrocyte; settings: read-out: Activity
[2] = Hemolytic activity in male Sprague-Dawley rat erythrocytes assessed as concentration required for 50% hemolysis incubated for 1 hr by absorbance based method; assay type: toxicity, cell-based, Erythrocyte
[3] = Hemolytic activity in male Sprague-Dawley rat erythrocytes at 100 uM incubated for 1 hr by absorbance based method relative to control; assay type: toxicity, cell-based, Erythrocyte; settings: read-out: Activity
[4] = Hemolytic activity in male Sprague-Dawley rat erythrocytes at 25 uM incubated for 1 hr by absorbance based method relative to control; assay type: toxicity, cell-based, Erythrocyte; settings: read-out: Activity
[5] = Selectivity index, ratio of HC10 for hemolytic activity in male Sprague-Dawley rat erythrocytes to MIC for antibacterial activity against Escherichia coli ATCC 25922; assay type: toxicity; settings: read-out: Selectivity Index
Staphylococcus aureus = experiment: Antibacterial activity against Staphylococcus aureus ATCC 25923 assessed as inhibition of bacterial growth incubated for 24 hrs by broth dilution method; assay type: functional
Escherichia coli = experiment: Antibacterial activity against Escherichia coli ATCC 25922 assessed as inhibition of bacterial growth incubated for 24 hrs by broth dilution method; assay type: functional
Erythrocyte = experiment: Hemolytic activity in male Sprague-Dawley rat erythrocytes assessed as concentration required for 10% hemolysis incubated for 1 hr by absorbance based method; assay type: toxicity, cell-based

| SMILES | MIC (Staphylococcus aureus) | MIC (Escherichia coli) | hemolysis at 1 h, 50 µM [1] | HC50 at 1 h [2] | hemolysis at 1 h, 100 µM [3] | hemolysis at 1 h, 25 µM [4] | selectivity ratio [5] | HC10 (Erythrocyte) |
| --- | --- | --- | --- | --- | --- | --- | --- | --- |
| C[C@@H](c1ccccc1)N(CC(N)=O)C(=O)CN(CCCCN)C(=O)CN(CCCCN)C(=O)CN(C(=O)CN(C(=O)CN(CCCCN)C(=O)CN(C(=O)CN(C(=O)CN(CCCCN)C(=O)CN(CCc1c[nH]c2ccccc12)C(=O)CN(CCc1c[nH]c2ccccc12)C(=O)CNCCCCN)[C@@H](C)c1ccccc1)[C@@H](C)c1ccccc1)[C@@H](C)c1ccccc1)[C@@H](C)c1ccccc1 | 3.1 µM (≈ 5.78 µg/mL) | 6.3 µM (≈ 11.7 µg/mL) | 8.77% | > 100 µM | 11.1% | 4.95% | 13.5 | 75.3 µM |
| C[C@@H](c1ccccc1)N(CC(N)=O)C(=O)CN(C(=O)CN(CCCCN)C(=O)CN(C(=O)CN(C(=O)CN(CCCCN)C(=O)CN(C(=O)CN(C(=O)CN(CCCCN)C(=O)CN(CCc1c[nH]c2ccccc12)C(=O)CN(CCc1c[nH]c2ccccc12)C(=O)CNCCCCN)[C@@H](C)c1ccccc1)[C@@H](C)c1ccccc1)[C@@H](C)c1ccccc1)[C@@H](C)c1ccccc1)[C@@H](C)c1ccccc1 | < 0.8 µM | 3.1 µM (≈ 5.88 µg/mL) | 55.3% | 63.6 µM | 73.9% | 33% | 2.5 | 7.9 µM |
| C[C@@H](c1ccccc1)N(CC(=O)N(CC(=O)N(CCCCN)CC(=O)N(CC(=O)N(CC(=O)N(CCCCN)CC(=O)N(CC(=O)N(CC(=O)N(CCCCN)CC(=O)N(CC(=O)N(CC(N)=O)Cc1ccccc1)Cc1ccccc1)Cc1ccccc1)Cc1ccccc1)Cc1ccccc1)Cc1ccccc1)Cc1ccccc1)C(=O)CN(CCCCN)C(=O)CNC(=O)[C@H](Cc1c[nH]cn1)NC(=O)CNC(=O)CN (H-GGHG[Nlys][Nspe][Nphe][Nlys][Nphe][Nphe][Nlys][Nphe][Nphe][Nlys][Nphe][Nphe]-NH2) | > 25 µM | 25 µM (≈ 50.7 µg/mL) | 0.18% | > 100 µM | 1.36% | -0.43% |  | > 100 µM |
| C[C@@H](c1ccccc1)N(CC(=O)N(CCCCN)CC(=O)N(CC(=O)N(CC(=O)N(CCCCN)CC(=O)N(CC(=O)N(CC(=O)N(CCCCN)CC(=O)N(CC(=O)N(CC(N)=O)Cc1ccccc1)Cc1ccccc1)Cc1ccccc1)Cc1ccccc1)Cc1ccccc1)Cc1ccccc1)C(=O)CN(Cc1ccccc1)C(=O)CN(CCCCN)C(=O)[C@H](Cc1c[nH]cn1)NC(=O)CNC(=O)CN (H-GGH[Nlys][Nphe][Nspe][Nlys][Nphe][Nphe][Nlys][Nphe][Nphe][Nlys][Nphe][Nphe]-NH2) | > 25 µM | 25 µM (≈ 49.3 µg/mL) | -0.22% | > 100 µM | 0.92% | -0.71% |  | > 100 µM |
| C[C@@H](c1ccccc1)N(CC(=O)NC[C@H](N)C(=O)NCC(=O)N[C@@H](Cc1c[nH]cn1)C(N)=O)C(=O)CN(CCCCN)C(=O)CN(CCCCN)C(=O)CN(C(=O)CN(C(=O)CN(CCCCN)C(=O)CN(C(=O)CN(C(=O)CN(CCCCN)C(=O)CN(CCc1c[nH]c2ccccc12)C(=O)CN(CCc1c[nH]c2ccccc12)C(=O)CNCCCCN)[C@@H](C)c1ccccc1)[C@@H](C)c1ccccc1)[C@@H](C)c1ccccc1)[C@@H](C)c1ccccc1 (H-[Nlys][Gly(N(CH2)2(3-indolyl))][Gly(N(CH2)2(3-indolyl))][Nlys][Nspe][Nspe][Nlys][Nspe][Nspe][Nlys][Nlys][Nspe]-X1) | 6.3 µM (≈ 13.5 µg/mL) | > 25 µM | 6.1% | > 100 µM | 5.26% | 4.93% |  | > 100 µM |
| C[C@@H](c1ccccc1)N(CC(=O)N(CCCCN)CC(=O)N(CC(=O)N(CC(=O)N(CCCCN)CC(=O)N(CC(=O)N(CC(=O)NC[C@H](N)C(=O)NCC(=O)N[C@@H](Cc1c[nH]cn1)C(N)=O)Cc1ccccc1)Cc1ccccc1)[C@@H](C)c1ccccc1)[C@@H](C)c1ccccc1)C(=O)CN(C(=O)CN(CCCCN)C(=O)CN(Cc1ccccc1)C(=O)CN(Cc1ccccc1)C(=O)CNCCCCN)[C@@H](C)c1ccccc1 (H-[Nlys][Nphe][Nphe][Nlys][Nspe][Nspe][Nlys][Nspe][Nspe][Nlys][Nphe][Nphe]-X1) | 25 µM (≈ 51.1 µg/mL) | > 25 µM | 2.32% | > 100 µM | 7.73% | 0.66% |  | > 100 µM |

Now from value to molecule, other results behind:

| MIC (Staphylococcus aureus) | MIC (Escherichia coli) | SMILES | hemolysis at 1 h, 50 µM [1] | HC50 at 1 h [2] | hemolysis at 1 h, 100 µM [3] | hemolysis at 1 h, 25 µM [4] | selectivity ratio [5] | HC10 (Erythrocyte) |
| --- | --- | --- | --- | --- | --- | --- | --- | --- |
| 25 µM (≈ 47.8 µg/mL) | 25 µM (≈ 47.8 µg/mL) | C[C@@H](c1ccccc1)N(CC(N)=O)C(=O)CN(CCCCN)C(=O)CN(Cc1ccccc1)C(=O)CN(Cc1ccccc1)C(=O)CN(CCCCN)C(=O)CN(C(=O)CN(C(=O)CN(CCCCN)C(=O)CN(Cc1ccccc1)C(=O)CN(Cc1ccccc1)C(=O)CN(CCCCN)C(=O)CNC(=O)[C@H](Cc1c[nH]cn1)NC(=O)CNC(=O)CN)[C@@H](C)c1ccccc1)[C@@H](C)c1ccccc1 (H-GGHG[Nlys][Nphe][Nphe][Nlys][Nspe][Nspe][Nlys][Nphe][Nphe][Nlys][Nspe]-NH2) | 6.84% | > 100 µM | 20.8% | 0.91% | 2.3 | 58.4 µM |
| 6.3 µM (≈ 12.4 µg/mL) | 12.5 µM (≈ 24.6 µg/mL) | C[C@@H](c1ccccc1)N(CC(N)=O)C(=O)CN(CCCCN)C(=O)CN(C(=O)CN(C(=O)CN(CCCCN)C(=O)CN(C(=O)CN(C(=O)CN(CCCCN)C(=O)CN(C(=O)CN(C(=O)CN(CCCCN)C(=O)CNC(=O)[C@H](Cc1c[nH]cn1)NC(=O)CNC(=O)CN)[C@@H](C)c1ccccc1)[C@@H](C)c1ccccc1)[C@@H](C)c1ccccc1)[C@@H](C)c1ccccc1)[C@@H](C)c1ccccc1)[C@@H](C)c1ccccc1 (H-GGHG[Nlys][Nspe][Nspe][Nlys][Nspe][Nspe][Nlys][Nspe][Nspe][Nlys][Nspe]-NH2) | 22.4% | 100 µM | 49.8% | 6.5% | 2.2 | 27.7 µM |
| 1.6 µM (≈ 3.35 µg/mL) | 12.5 µM (≈ 26.2 µg/mL) | C[C@@H](c1ccccc1)N(CC(N)=O)C(=O)CN(C(=O)CN(CCCCN)C(=O)CN(Cc1ccccc1)C(=O)CN(Cc1ccccc1)C(=O)CN(CCCCN)C(=O)CN(Cc1ccccc1)C(=O)CN(Cc1ccccc1)C(=O)CN(CCCCN)C(=O)CN(CCc1c[nH]c2ccccc12)C(=O)CN(CCc1c[nH]c2ccccc12)C(=O)CN(CCCCN)C(=O)[C@H](Cc1c[nH]cn1)NC(=O)CNC(=O)CN)[C@@H](C)c1ccccc1 (H-GGH[Nlys][Gly(N(CH2)2(3-indolyl))][Gly(N(CH2)2(3-indolyl))][Nlys][Nphe][Nphe][Nlys][Nphe][Nphe][Nlys][Nspe][Nspe]-NH2) | 25.5% | > 100 µM | 40.2% | 13.8% | 1.3 | 16.3 µM |
| 6.3 µM (≈ 13.5 µg/mL) | > 25 µM | C[C@@H](c1ccccc1)N(CC(=O)N(CCCCN)CC(=O)N(CCc1c[nH]c2ccccc12)CC(=O)N(CCc1c[nH]c2ccccc12)CC(=O)NC[C@H](N)C(=O)NCC(=O)N[C@@H](Cc1c[nH]cn1)C(N)=O)C(=O)CN(CCCCN)C(=O)CN(CCCCN)C(=O)CN(C(=O)CN(C(=O)CN(CCCCN)C(=O)CN(C(=O)CN(C(=O)CNCCCCN)[C@@H](C)c1ccccc1)[C@@H](C)c1ccccc1)[C@@H](C)c1ccccc1)[C@@H](C)c1ccccc1 (H-[Nlys][Nspe][Nspe][Nlys][Nspe][Nspe][Nlys][Nlys][Nspe][Nlys][Gly(N(CH2)2(3-indolyl))][Gly(N(CH2)2(3-indolyl))]-X1) | 4.23% | > 100 µM | 3.38% | 3.83% |  | > 100 µM |
